Results: patent publication US8524755B2 (priority 2009, dated 2013)

How the values were obtained:
[1] = molecular target: T1, Dopamine D3 (h) (Homo sapiens, UniProt P35462); experiment: Binding D3 (h) (aa); conditions: read-out: % Inhibition of Control Specific Binding @ 10 μM
T1 construct: expressed in transfected cells; host or cells: CHO cells
Protocol: (§1) Radioligand binding assay methods utilized to measure the activity of compounds of the invention will be familiar to those skilled in the art. In each assay case, the assay components such as, for example, the cell-type, ligand, reference compound and the like, will be familiar to practitioners of such an assay.
(§2) Analysis and Expression of Results: Compounds of the invention were tested in the biochemical assays and percent inhibition of specific binding was determined. The specific ligand binding to the receptors is defined as the difference between the total binding and the nonspecific binding determined in the presence of an excess of unlabelled ligand. The results are expressed as a percent inhibition of control specific binding (100−((measured specific binding/control specific binding)×100)) obtained in the presence of test compounds.

[2] = molecular target: T2, Histamine H1 (h) (Homo sapiens, UniProt P35367); experiment: Binding H1 (h) (aa); conditions: read-out: % Inhibition of Control Specific Binding @ 10 μM
T2 construct: expressed in transfected cells; host or cells: HEK-293 cells
Protocol: as §1, §2

[3] = molecular target: T3, Histamine H3 (h) (Homo sapiens, UniProt Q9Y5N1); experiment: Binding H3 (h) (ag); conditions: read-out: % Inhibition of Control Specific Binding @ 10 μM
T3 construct: expressed in transfected cells; host or cells: CHO cells
Protocol: as §1, §2

[4] = tested on: Ca^2+ channel (L, dihydropyridine site); experiment: Binding Ca2+ channel (L, dihydropyridine site) (aa); design: species or system rat
Protocol: as §1, §2

[5] = tested on: Ca^2+ channel (L, diltiazem site) (benzothiazepines); experiment: Binding Ca2+ channel (L, diltiazem site) (aa); design: species or system rat
Protocol: as §1, §2

[6] = molecular target: T4, MAO-B (h) (Homo sapiens, UniProt P27338); experiment: Enzyme assay MAO-B (h); type: biochemical; conditions: read-out: % Inhibition of Control Values @ 10 μM
T4 construct: human platelets; from tissue; host or cells: human platelets
T4 sequence (P27338 1-520): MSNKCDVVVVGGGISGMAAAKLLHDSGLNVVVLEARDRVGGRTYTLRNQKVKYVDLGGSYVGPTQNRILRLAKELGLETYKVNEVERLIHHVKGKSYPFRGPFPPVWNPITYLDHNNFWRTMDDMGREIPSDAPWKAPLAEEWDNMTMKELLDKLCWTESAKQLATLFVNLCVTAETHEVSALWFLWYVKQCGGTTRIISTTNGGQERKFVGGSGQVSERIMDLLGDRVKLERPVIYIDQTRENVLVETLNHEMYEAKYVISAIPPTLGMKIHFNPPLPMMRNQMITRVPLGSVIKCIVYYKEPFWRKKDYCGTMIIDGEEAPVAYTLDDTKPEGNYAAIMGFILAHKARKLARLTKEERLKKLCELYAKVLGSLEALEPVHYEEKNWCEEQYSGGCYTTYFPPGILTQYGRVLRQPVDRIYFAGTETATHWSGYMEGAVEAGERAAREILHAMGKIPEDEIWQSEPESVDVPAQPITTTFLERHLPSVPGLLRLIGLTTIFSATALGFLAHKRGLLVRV
Excerpt: (§3) The enzyme assays provided below will be familiar to those skilled in the art.
(§4) Analysis and Expression of Results: The results are expressed as a percent of control specific activity ((measured specific activity/control specific activity)×100) obtained in the presence of the test compounds.

[7] = molecular target: T5, PNMT (Bos taurus, UniProt P10938); experiment: Enzyme assay PNMT; type: biochemical, bovine; conditions: read-out: % Inhibition of Control Values @ 10 μM
T5 construct: bovine adrenal medulla; from tissue; host or cells: bovine adrenal medulla
T5 sequence (P10938 1-283): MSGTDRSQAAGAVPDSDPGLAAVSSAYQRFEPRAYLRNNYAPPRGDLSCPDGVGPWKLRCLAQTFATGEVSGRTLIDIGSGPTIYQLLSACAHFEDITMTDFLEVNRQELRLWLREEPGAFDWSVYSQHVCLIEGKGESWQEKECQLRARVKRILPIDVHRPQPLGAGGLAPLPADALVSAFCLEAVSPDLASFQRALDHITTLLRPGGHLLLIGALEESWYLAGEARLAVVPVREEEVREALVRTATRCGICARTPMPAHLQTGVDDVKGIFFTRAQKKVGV
Excerpt: as §3, §4

[8] = Quantification of RD162′ metabolites in human plasma; type: in vivo; conditions: for Concentrations in Patients' Plasma Expressed as a Percentage of the Concentration of RD162′, Average / Concentrations in Patients' Plasma Expressed as a Percentage of the Concentration of RD162′, Maximum / Concentrations in Patients' Plasma Expressed as a Percentage of the Concentration of RD162′, Minimum: 18 patients; for Concentrations in Patients' Plasma Expressed as a Percentage of the Concentration of RD162′, Minimum: RD162′ 150 to 480 mg per day, approx. three months; for concentration in the plasma (in words): plasma of 18 prostate cancer patients on RD162′
Protocol: The method used to derive the above data was as follows. Electrospray LC/MS/MS Assay of RD162′ Metabolites ((MI), (MII), (MIII)):
Plasma Extraction Procedures for Concentration Determinations: A human plasma sample (50 μL) was added to a 10-mL glass tube. A 10-μL volume of IS stock solution was added to the tube, followed by addition of 1 M phosphate buffer at pH 3.0 (400 μL). The mixture was vortexed and […] (5 mL) was added. The tube was vortexed for 30 sec and then centrifuged at 4540 g for 10 min. The solvent was transferred to a glass tube and dried under air flow at 35-40° C. The sample was reconstituted with 100 μL of methanol: 0.1% formic acid in water (7:3) vortexed for 30 sec, and sonicated for 5 min. The sample was transferred to an HPLC sample vial and centrifuged at 4540 g for 5 min. A 20-μL volume was then injected onto an LC/MS/MS system for assay.
HP1100 LC Pump Initial Conditions: HPLC Column: ACE C18, 5 μM, 150×2.1 mm id. Solvents: A % 40.0; B % 60.0; C % 0.0; D % 0.0; Valve A set to channel 1; Valve B set to channel 1. Flow: 0.300 mL/min; Stop Time: 9.0 min; MM. Pressure: 0 bar; Max. Pressure: 300 bar; Oven Temperature Left: 30.0° C.; Oven Temperature Right: 30.0° C.
LC/MS/MS Parameters for RD162′ Metabolite (MI)
Instrument Parameters—Function 1: Polarity ES-; Data type: MRM data; Function type: MRM of 5 channels.
HPLC Column: ACE C18, 5 μM, 150×2.1 mm id; HP1100 LC Pump mode: Isocratic; Isocratic solvent conditions: A % 25.0; B % 75.0; C % 0.0; D % 0.0; Valve A set to channel 1; Valve B set to channel 1; Flow: 0.300 mL/min; Stop Time: 4.5 min; Min. Pressure: 0 bar; Max. Pressure: 300 bar: Oven Temperature Left: 30.0° C.; Oven Temperature Right: 30.0° C.

T1 sequence (P35462 whole entry): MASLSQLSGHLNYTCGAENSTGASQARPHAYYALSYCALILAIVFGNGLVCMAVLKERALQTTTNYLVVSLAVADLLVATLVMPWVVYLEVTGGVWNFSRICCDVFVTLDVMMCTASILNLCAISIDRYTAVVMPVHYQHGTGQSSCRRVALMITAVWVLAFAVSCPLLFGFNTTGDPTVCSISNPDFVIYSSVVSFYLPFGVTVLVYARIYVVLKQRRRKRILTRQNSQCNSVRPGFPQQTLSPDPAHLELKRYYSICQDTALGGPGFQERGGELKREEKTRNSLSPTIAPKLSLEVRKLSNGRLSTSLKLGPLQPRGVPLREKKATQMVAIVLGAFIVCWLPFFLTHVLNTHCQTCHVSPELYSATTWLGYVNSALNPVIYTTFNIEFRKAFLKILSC
T2 sequence (P35367 whole entry): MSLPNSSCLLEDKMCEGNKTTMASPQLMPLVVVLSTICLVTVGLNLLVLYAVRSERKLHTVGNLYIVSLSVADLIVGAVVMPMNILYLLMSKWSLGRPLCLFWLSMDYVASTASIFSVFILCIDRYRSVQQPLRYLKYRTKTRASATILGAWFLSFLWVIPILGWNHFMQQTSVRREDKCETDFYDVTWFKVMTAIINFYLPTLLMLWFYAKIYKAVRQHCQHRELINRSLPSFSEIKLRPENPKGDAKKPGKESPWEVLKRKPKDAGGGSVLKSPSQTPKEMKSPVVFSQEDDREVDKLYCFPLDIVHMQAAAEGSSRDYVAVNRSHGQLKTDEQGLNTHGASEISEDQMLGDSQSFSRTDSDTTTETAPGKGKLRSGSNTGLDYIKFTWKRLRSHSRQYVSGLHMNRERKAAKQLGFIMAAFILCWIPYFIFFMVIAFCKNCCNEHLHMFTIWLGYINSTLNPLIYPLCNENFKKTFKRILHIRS
T3 sequence (Q9Y5N1 whole entry): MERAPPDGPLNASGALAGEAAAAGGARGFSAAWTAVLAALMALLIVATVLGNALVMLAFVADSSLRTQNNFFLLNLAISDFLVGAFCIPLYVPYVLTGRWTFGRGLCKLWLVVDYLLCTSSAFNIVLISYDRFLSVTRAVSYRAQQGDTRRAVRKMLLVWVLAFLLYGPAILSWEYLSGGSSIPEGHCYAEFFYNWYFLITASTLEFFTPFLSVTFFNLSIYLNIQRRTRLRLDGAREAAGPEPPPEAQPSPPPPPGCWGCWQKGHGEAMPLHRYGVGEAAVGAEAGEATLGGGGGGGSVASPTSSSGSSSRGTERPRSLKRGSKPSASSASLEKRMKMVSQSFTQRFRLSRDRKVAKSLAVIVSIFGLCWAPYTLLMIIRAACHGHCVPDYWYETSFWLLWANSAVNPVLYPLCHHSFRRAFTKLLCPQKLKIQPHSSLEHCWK

Row | Compound | inhibition at 10 µM [1] | inhibition at 10 µM [2] | inhibition at 10 µM [3] | % Inhibition of Control Specific Binding @ 10 μM [4] | % Inhibition of Control Specific Binding @ 10 μM [5] | inhibition at 10 µM [6] | inhibition at 10 µM [7] | Concentrations in Patients' Plasma Expressed as a Percentage of the Concentration of RD162′, Average [8] | Concentrations in Patients' Plasma Expressed as a Percentage of the Concentration of RD162′, Maximum [8] | Concentrations in Patients' Plasma Expressed as a Percentage of the Concentration of RD162′, Minimum [8] | concentration in the plasma (in words) [8]
1 | CC1(C)C(=O)N(c2ccc(C#N)c(C(F)(F)F)c2)C(=S)N1c1ccc(C(=O)O)c(F)c1 [(MI), 4-(3-(4-cyano-3-(trifluoromethyl)phenyl)-5,5-dimethyl-4-oxo-2-thioxoimidazolidin-1-yl)-2-fluorobenzoic acid] | 7% | -8% | -3% | 16% | 2% | 8% | -6% | 60% | 259% | 16% | high concentrations
2 | CC1(C)C(=O)N(c2ccc(C#N)c(C(F)(F)F)c2)C(=S)N1c1ccc(C(N)=O)c(F)c1 [(MII), 4-(3-(4-Cyano-3-(trifluoromethyl)phenyl)-5,5-dimethyl-4-oxo-2-thioxoimidazolidin-1-yl)-2-fluorobenzamide] | 11% | 2% | -2% | 18% | 22% | -4% | -4% | 112% | 204% | 49% | high concentrations
3 | CC1(C)C(=O)N(c2ccc(C#N)c(C(F)(F)F)c2)C(=O)N1c1ccc(C(N)=O)c(F)c1 [(MIII), 4-(3-(4-cyano-3-(trifluoromethyl)phenyl)-5,5-dimethyl-2,4-dioxoimidazolidin-1-yl)-2-fluorobenzamide] | 0% | -2% | -13% | −2% | −2% | -5% | -2% | 4% | 14% | 1% | low concentrations
4 | CNC(=O)c1ccc(N2C(=O)N(c3ccc(C#N)c(C(F)(F)F)c3)C(=O)C2(C)C)cc1F [(MIV), 4-(3-(4-cyano-3-(trifluoromethyl)phenyl)-5,5-dimethyl-2,4-dioxoimidazolidin-1-yl)-2-fluoro-N-methylbenzamide] | 7% | -11% | -4% | 16% | 1% | 11% | 14% |  |  |  | 
